pIC50: −log10 of the molar value. Positions of bridges follow the written chain, without caps; N, C: chain ends. Non-standard residues stand in square brackets, D forms with d. Residues, ends and D or L forms follow the SMILES beside them. *: point of attachment. hPhe(3,5-F2-4-CF3) = N[C@@H](CCc1cc(F)c(C(F)(F)F)c(F)c1)C(=O)O; hPhe(3-Cl-4-CF3) = N[C@@H](CCc1ccc(C(F)(F)F)c(Cl)c1)C(=O)O; hPhe(3-F,4-CF3) = N[C@@H](CCc1ccc(C(F)(F)F)c(F)c1)C(=O)O; NMePhe(4-CF3) = CN[C@@H](Cc1ccc(C(F)(F)F)cc1)C(=O)O; 3Oxa8azabicyclo(3.2.1)octane = C1CC2COCC1N2*; NMePhe(4-Me) = CN[C@@H](Cc1ccc(C)cc1)C(=O)O; NMeAla(cPent) = CN[C@@H](CC1CCCC1)C(=O)O; NMeGly(cPent) = CN[C@H](C(=O)O)C1CCCC1; NMeCha = CN[C@@H](CC1CCCCC1)C(=O)O; cisHyp = O=C(O)[C@@H]1C[C@H](O)CN1; Hyp = O=C(O)[C@@H]1C[C@@H](O)CN1; NMeChg = CN[C@H](C(=O)O)C1CCCCC1; NMeD = CN[C@@H](CC(=O)O)C(=O)O; NMeL = CN[C@@H](CC(C)C)C(=O)O; dNMeAbu = CC[C@@H](NC)C(=O)O; d(β3hA) = C[C@@H](N)CC(=O)O; NMeS = CN[C@@H](CO)C(=O)O; NMeA = CN[C@@H](C)C(=O)O; Piperidide = C1CCN(*)CC1; dNMeA = CN[C@H](C)C(=O)O; Ac5c = NC1(C(=O)O)CCCC1; Aze = O=C(O)[C@@H]1CCN1; Ac4c = NC1(C(=O)O)CCC1; Sar = CNCC(=O)O; Propyl = CCC*

The test system of the test is Human pancreatic cancer cell line AsPC-1. The test is described as follows: Measurement of AsPC-1 cell growth inhibition (AsPC-1 CGI). The settings on record: 96 h. It counts as cell-based. Summed up: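 AsPC-1 cells in 15% FBS RPMI-1640 were exposed to test compound for 96 hours at 37° C, with CellTiter-Glo as endpoint.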
In the case of `CCCOC[C@H]1C(=O)N(C)CC(=O)N[C@@H](CCc2cc(F)c(C(F)(F)F)c(F)c2)C(=O)N2CCC[C@H]2C(=O)NC2(CCCC2)C(=O)N(C)[C@@H](C2CCCC2)C(=O)N(C)[C@H](C(=O)N2C3CCC2COC3)CC(=O)N(C)[C@@H](CC(C)C)C(=O)N[C@@H]([C@@H](C)CC)C(=O)N(C)[C@@H](C)C(=O)N2CC[C@H]2C(=O)N1C` [Compound 1355] ([NMeL]I[NMeA][Aze][NMeS](Propyl)[Sar][hPhe(3,5-F2-4-CF3)]P[Ac5c][NMeGly(cPent)][NMeD]-{3Oxa8azabicyclo(3.2.1)octane}; lactam N-11), the pIC50 was 7.30 to 7.70. As for `CCCOC[C@H]1C(=O)N(C)CC(=O)N[C@@H](CCc2ccc(C(F)(F)F)c(Cl)c2)C(=O)N2CCC[C@H]2C(=O)NC2(CCCC2)C(=O)N(C)[C@@H](C2CCCC2)C(=O)N(C)[C@H](C(=O)N2C3CCC2COC3)CC(=O)N(C)[C@@H](CC2CCCC2)C(=O)N[C@@H]([C@@H](C)CC)C(=O)N[C@@H](C)C(=O)N2CC[C@H]2C(=O)N1C` [Compound 1359] ([NMeAla(cPent)]IA[Aze][NMeS](Propyl)[Sar][hPhe(3-Cl-4-CF3)]P[Ac5c][NMeGly(cPent)][NMeD]-{3Oxa8azabicyclo(3.2.1)octane}; lactam N-11), the pIC50 is 7.00 to 7.30. Then `CC[C@H](C)[C@@H]1NC(=O)[C@H](CC(C)C)N(C)C(=O)C[C@@H](C(=O)N2CCCCC2)N(C)C(=O)[C@H](C2CCCCC2)N(C)C(=O)C2(CCCC2)NC(=O)[C@@H]2C[C@H](O)CN2C(=O)[C@H](CCc2ccc(C(F)(F)F)c(Cl)c2)NC(=O)CN(C)C(=O)[C@H](CC2CCCCC2)N(C)C(=O)CN(C)C(=O)CN(C)C1=O` [Compound 1374, (3S,9S,18S,21S,25S,28S,34S,36S)-3-[2-[3-chloro-4-(trifluoromethyl)phenyl]ethyl]-28-cyclohexyl-9-(cyclohexylmethyl)-36-hydroxy-21-isobutyl-7,10,13,16,22,26,29-heptamethyl-18-[(1S)-1-methylpropyl]-25-(piperidine-1-carbonyl)spiro[1,4,7,10,13,16,19,22,26,29,32-undecazabicyclo[32.3.0]heptatriacontane-31,1′-cyclopentane]-2,5,8,11,14,17,20,23,27,30,33-undecone] ([NMeL]I[Sar][Sar][NMeCha][Sar][hPhe(3-Cl-4-CF3)][cisHyp][Ac5c][NMeChg][NMeD]-Piperidide; lactam N-11), with 7.00 to 7.30; and `CC[C@H](C)[C@@H]1NC(=O)[C@H](CC(C)C)N(C)C(=O)C[C@@H](C(=O)N2CCCCC2)N(C)C(=O)[C@H](C2CCCCC2)N(C)C(=O)C2(CCCC2)NC(=O)[C@@H]2C[C@@H](O)CN2C(=O)[C@H](CCc2ccc(C(F)(F)F)c(Cl)c2)NC(=O)CN(C)C(=O)[C@H](CC2CCCCC2)N(C)C(=O)CN(C)C(=O)CN(C)C1=O` [Compound 1376, (3S,9S,18S,21S,25S,28S,34S,36R)-3-[2-[3-chloro-4-(trifluoromethyl)phenyl]ethyl]-28-cyclohexyl-9-(cyclohexylmethyl)-36-hydroxy-21-isobutyl-7,10,13,16,22,26,29-heptamethyl-18-[(1S)-1-methylpropyl]-25-(piperidine-1-carbonyl)spiro[1,4,7,10,13,16,19,22,26,29,32-undecazabicyclo[32.3.0]heptatriacontane-31,1′-cyclopentane]-2,5,8,11,14,17,20,23,27,30,33-undecone] ([NMeL]I[Sar][Sar][NMeCha][Sar][hPhe(3-Cl-4-CF3)][Hyp][Ac5c][NMeChg][NMeD]-Piperidide; lactam N-11), with 6.30 to 7.00. The compound `CC[C@@H]1C(=O)NC2(CCCC2)C(=O)N(C)[C@@H](C2CCCC2)C(=O)N(C)[C@H](C(=O)N2CCCCC2)CC(=O)N(C)[C@@H](CC(C)C)C(=O)N[C@@H]([C@@H](C)CC)C(=O)N(C)CC(=O)N(C)CC(=O)N(C)[C@@H](CC2CCCCC2)C(=O)N(C)CC(=O)N[C@@H](CCc2ccc(C(F)(F)F)c(Cl)c2)C(=O)N1C` [Compound 1439] ([NMeL]I[Sar][Sar][NMeCha][Sar][hPhe(3-Cl-4-CF3)][dNMeAbu][Ac5c][NMeGly(cPent)][NMeD]-Piperidide; lactam N-11) showed a pIC50 of 6.30 to 7.00. `CC[C@H](C)[C@@H]1NC(=O)[C@H](CC(C)C)N(C)C(=O)C[C@@H](C)NC(=O)[C@H](C2CCCC2)N(C)C(=O)C2(CCCC2)NC(=O)[C@@H]2CCCN2C(=O)[C@H](CCc2ccc(C(F)(F)F)c(Cl)c2)NC(=O)CN(C)C(=O)[C@H](Cc2ccc(C)cc2)N(C)C(=O)CN(C)C(=O)CN(C)C1=O` [Compound 1471, (3S,9S,18S,21S,25R,28S,34S)-3-[2-[3-chloro-4-(trifluoromethyl)phenyl]ethyl]-28-cyclopentyl-21-isobutyl-7,10,13,16,22,25,29-heptamethyl-18-[(1S)-1-methylpropyl]-9-(p-tolylmethyl)spiro[1,4,7,10,13,16,19,22,26,29,32-undecazabicyclo[32.3.0]heptatriacontane-31,1′-cyclopentane]-2,5,8,11,14,17,20,23,27,30,33-undecone] (cyclo([Ac5c][NMeGly(cPent)][d(β3hA)][NMeL]I[Sar][Sar][NMePhe(4-Me)][Sar][hPhe(3-Cl-4-CF3)]P)) gave a pIC50 of 6.30 to 7.00. The figure for `CC[C@H](C)[C@@H]1NC(=O)[C@H](CC(C)C)N(C)C(=O)C[C@@H](C)NC(=O)[C@H](C2CCCC2)N(C)C(=O)C2(CCCC2)NC(=O)[C@@H]2CCCN2C(=O)[C@H](CCc2ccc(C(F)(F)F)c(Cl)c2)NC(=O)CN(C)C(=O)[C@H](Cc2ccc(C(F)(F)F)cc2)N(C)C(=O)[C@@H]2CCN2C(=O)[C@H](C)N(C)C1=O` [Compound 1475] (cyclo([Ac5c][NMeGly(cPent)][d(β3hA)][NMeL]I[NMeA][Aze][NMePhe(4-CF3)][Sar][hPhe(3-Cl-4-CF3)]P)) is 7.00 to 7.30; for `CC[C@H](C)[C@@H]1NC(=O)[C@H](CC(C)C)N(C)C(=O)C[C@@H](C)NC(=O)[C@H](C2CCCC2)N(C)C(=O)C2(CCCC2)NC(=O)[C@@H]2CCCN2C(=O)[C@H](CCc2ccc(C(F)(F)F)c(Cl)c2)NC(=O)CN(C)C(=O)[C@H](CC2CCCCC2)N(C)C(=O)[C@@H]2CCN2C(=O)[C@H](C)N(C)C1=O` [Compound 1477] (cyclo([Ac5c][NMeGly(cPent)][d(β3hA)][NMeL]I[NMeA][Aze][NMeCha][Sar][hPhe(3-Cl-4-CF3)]P)) it is 6.30 to 7.00.

For the compound `CC[C@H](C)[C@@H]1NC(=O)[C@H](CC(C)C)N(C)C(=O)C[C@@H](C)NC(=O)[C@H](C2CCCC2)N(C)C(=O)C2(CCCC2)NC(=O)[C@@H]2CCCN2C(=O)[C@H](CCc2ccc(C(F)(F)F)c(Cl)c2)NC(=O)[C@@H](C)N(C)C(=O)[C@H](Cc2ccc(C(F)(F)F)cc2)N(C)C(=O)[C@@H]2CCN2C(=O)[C@H](C)N(C)C1=O` [Compound 1482] (cyclo([Ac5c][NMeGly(cPent)][d(β3hA)][NMeL]I[NMeA][Aze][NMePhe(4-CF3)][dNMeA][hPhe(3-Cl-4-CF3)]P)), the negative logarithm of the IC50 (pIC50) is 6.30 to 7.00. Then `CC[C@H](C)[C@@H]1NC(=O)[C@H](CC(C)C)N(C)C(=O)C[C@@H](C)NC(=O)[C@H](CC(C)C)N(C)C(=O)C2(CCCC2)NC(=O)[C@@H]2C[C@@H](O)CN2C(=O)[C@H](CCc2ccc(C(F)(F)F)c(F)c2)NC(=O)CN(C)C(=O)[C@H](CC2CCCCC2)N(C)C(=O)CN(C)C(=O)CN(C)C1=O` [Compound 1483, (3S,9S,18S,21S,25R,28S,34S,36R)-9-(cyclohexylmethyl)-3-[2-[3-fluoro-4-(trifluoromethyl)phenyl]ethyl]-36-hydroxy-21,28-diisobutyl-7,10,13,16,22,25,29-heptamethyl-18-[(1S)-1-methylpropyl]spiro[1,4,7,10,13,16,19,22,26,29,32-undecazabicyclo[32.3.0]heptatriacontane-31,1′-cyclopentane]-2,5,8,11,14,17,20,23,27,30,33-undecone] (cyclo([Ac5c][NMeL][d(β3hA)][NMeL]I[Sar][Sar][NMeCha][Sar][hPhe(3-F,4-CF3)][Hyp])), with under 6.30. `CC[C@H](C)[C@@H]1NC(=O)[C@H](C)N(C)C(=O)C[C@@H](C)NC(=O)[C@H](C2CCCC2)N(C)C(=O)C2(CCCC2)NC(=O)[C@@H]2CCCN2C(=O)[C@H](CCc2ccc(C(F)(F)F)c(Cl)c2)NC(=O)CN(C)C(=O)[C@H](Cc2ccc(C)cc2)N(C)C(=O)CN(C)C(=O)CN(C)C1=O` [Compound 1485] (cyclo([Ac5c][NMeGly(cPent)][d(β3hA)][NMeA]I[Sar][Sar][NMePhe(4-Me)][Sar][hPhe(3-Cl-4-CF3)]P)) gave a pIC50 of 6.30 to 7.00. The figure for `CC[C@H](C)[C@@H]1NC(=O)[C@H](C)N(C)C(=O)C[C@@H](C)NC(=O)[C@H](C2CCCC2)N(C)C(=O)C2(CCC2)NC(=O)[C@@H]2CCCN2C(=O)[C@H](CCc2ccc(C(F)(F)F)c(Cl)c2)NC(=O)CN(C)C(=O)[C@H](Cc2ccc(C(F)(F)F)cc2)N(C)C(=O)CN(C)C(=O)CN(C)C1=O` [Compound 1486] (cyclo([Ac4c][NMeGly(cPent)][d(β3hA)][NMeA]I[Sar][Sar][NMePhe(4-CF3)][Sar][hPhe(3-Cl-4-CF3)]P)) is 6.30 to 7.00; for `CC[C@H](C)[C@@H]1NC(=O)[C@H](CC(C)C)N(C)C(=O)C[C@@H](C)NC(=O)[C@H](C2CCCC2)N(C)C(=O)C2(CCCC2)NC(=O)[C@@H]2CCCN2C(=O)[C@H](CCc2ccc(C(F)(F)F)c(Cl)c2)NC(=O)CN(C)C(=O)[C@H](Cc2ccc(C(F)(F)F)cc2)N(C)C(=O)[C@@H]2CCN2C(=O)CN(C)C1=O` [Compound 1496] (cyclo([Ac5c][NMeGly(cPent)][d(β3hA)][NMeL]I[Sar][Aze][NMePhe(4-CF3)][Sar][hPhe(3-Cl-4-CF3)]P)) it is 7.00 to 7.30.

Turning to `CC[C@H](C)[C@@H]1NC(=O)[C@H](C)N(C)C(=O)C[C@@H](C)NC(=O)[C@H](C2CCCC2)N(C)C(=O)C2(CCCC2)NC(=O)[C@@H]2CCCN2C(=O)[C@H](CCc2ccc(C(F)(F)F)c(Cl)c2)NC(=O)[C@@H](C)N(C)C(=O)[C@H](Cc2ccc(C(F)(F)F)cc2)N(C)C(=O)[C@@H]2CCN2C(=O)[C@H](C)N(C)C1=O` [Compound 1497] (cyclo([Ac5c][NMeGly(cPent)][d(β3hA)][NMeA]I[NMeA][Aze][NMePhe(4-CF3)][dNMeA][hPhe(3-Cl-4-CF3)]P)), the pIC50 is 6.30 to 7.00.

Usually pIC50 stands for the IC50 on a negative log10 scale, so that one unit is a factor of ten. Low readings indicate a large IC50, high ones a small IC50.

These data come from US12371454B2, “Cyclic peptide compound having Kras inhibitory action” (priority 2019, dated 2025).
